Experimental data: US12472259B2, “PKC inhibitors for the treatment of septic cholestasis with polymethine dye targeting” (SMARTDYELIVERY GMBH, priority 2018, dated 2025)

Experiments:
[1] = cited from earlier work
[2] = during idelalisib; cited from earlier work
[3] = test system: male C57/BL6 mice, PCI model; experiment: Survival rate in cholestasis model under septic conditions, peritoneal contamination and infection (PCI); type: in vivo; conditions: 4 mg/kg body weight
Experimental: In order to mimic the septic cholestasis, a systemic inflammation was induced using the well-established peritoneal contamination and infection (PCI) model. In this model, a human faeces suspension is applied intraperitoneally (i.p.) and rapidly triggers sepsis with liver dysfunction.
For each batch of human stool, the dose is titrated carefully for a survival between 0% and 20% within two weeks.
To find the adequate dose of stool, different doses were tested. 6 h after i.p. application of the stool, 8-12 weeks old C57/BL6 mice or FVB/N mice were treated with the nanoparticles or the free drug respectively.
A systemic infection/sepsis with organ failure was induced in male C57/BL6 mice by using the PCI model. For this purpose, a human fecal suspension (2.5 μl/g BW for stool batch1 and 6 μl/g for stool batch 2, respectively) was injected intraperitoneally (without anesthesia) with weight adaptation, thus triggering peritonitis with subsequent systemic infection. […] The animals were closely monitored and scored every 6 hours for signs of infection in order to timely. […] With the evaluated dose of 6 μl/g BW stool and additional antibiotic therapy, all mice died within three days, as shown in the Kaplan-Meier-Schatzer diagram (FIG. 11, right panel). […]

CO[C@@H]1[C@H](N(C)C(=O)c2ccccc2)C[C@H]2O[C@]1(C)n1c3ccccc3c3c4c(c5c6ccccc6n2c5c31)C(=O)NC4 [midostaurin]
On-treatment death unrelated to the underlying malignancy ([1]; 16 patients, most commonly from infection (sepsis or pneumonia)): 11%
Grade≥3 adverse reactions (fatigue, sepsis, gastrointestinal hemorrhage, pneumonia, diarrhea, febrile neutropenia) reported in ([1]; patients on midostaurin): ≥ 5%
Serious adverse reactions most commonly due to infections and gastrointestinal disorders ([1]; patients on midostaurin): 20%
Serious adverse reactions reported ([1]; patients on midostaurin): 68 % of patients
Treatment discontinuation due to adverse reaction ([1]; patients on midostaurin): 21 % of patients

CC[C@H](Nc1ncnc2[nH]cnc12)c1nc2cccc(F)c2c(=O)n1-c1ccccc1 [idelalisib]
risk of developing sepsis as adverse effect compared to placebo [2]: five-fold higher risk

CN(C)CCCn1cc(C2=C(c3c[nH]c4ccccc34)C(=O)NC2=O)c2ccccc21 [BIM-1]
activity of the free drug alone (dose evaluation, survival) [3]: active

O=C1NC(=O)/C(=C\c2ccc3nccnc3c2)S1 [AS605240]
activity of the free drug alone (dose evaluation, survival) [3]: active
